Reference: article PMC12419465, “Photoresponsive molecular tweezers modulate Taspase 1 activity” (RSC Chemical Biology, 2025)
Where two headings read alike, the source gives them in different places.

Key:
wildtype Taspase 1 = target: T1, wildtype Taspase 1 (Homo sapiens, UniProt Q9H6P5); assay: Recombinant cleavage assay with GST-MLL2700–2850-GFP-His substrate; assay type: biochemical; conditions: for IC50: ligand conc. 10 - 100 µM, 200 nM Taspase 1, 5 µM substrate, n = 3, read-out: IC50 TW (recombinant cleavage, full-length protein); for Difference in inhibitory activity between E and Z isomers (times greater potency of E isomer): particularly at 50 μM
T1 sequence (Q9H6P5 1-233 limits assumed): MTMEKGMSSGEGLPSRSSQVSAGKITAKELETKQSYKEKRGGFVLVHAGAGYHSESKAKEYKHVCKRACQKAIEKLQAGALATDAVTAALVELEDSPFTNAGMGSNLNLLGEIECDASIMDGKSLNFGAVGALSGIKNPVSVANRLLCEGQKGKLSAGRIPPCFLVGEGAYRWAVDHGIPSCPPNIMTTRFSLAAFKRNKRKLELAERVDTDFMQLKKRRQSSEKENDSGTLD
T1 sequence (Q9H6P5 234-420 limits assumed): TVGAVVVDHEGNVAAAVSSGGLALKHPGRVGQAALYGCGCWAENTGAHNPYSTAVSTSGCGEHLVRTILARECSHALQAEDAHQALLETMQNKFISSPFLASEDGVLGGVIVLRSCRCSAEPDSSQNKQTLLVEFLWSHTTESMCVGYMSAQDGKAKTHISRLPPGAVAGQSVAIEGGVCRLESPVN
Description: The recombinant cleavage assay employing the recombinant fusion protein GST-MLL2700–2850-GFP-His, which contains the CS2 cleavage site of the Mixed-lineage leukemia (MLL) protein as a substrate for Taspase 1, was performed as described.[9,10]
Given that Taspase 1's active site is positioned directly at the base of the loop harboring the bipartite NLS (Fig. 1A, and Fig. S1), it is reasonable to expect that our photoswitchable tweezer constructs, which recognize this signal, might also influence proteolytic activity - similar to the inhibition observed with our “first-generation” multivalent ligands.[10] In principle the presence of a sterically demanding artificial ligand may hinder or even completely block substrate binding and subsequent cleavage. To assess this, we employed a well-established in vitro cleavage assay using a recombinant, truncated fusion protein harboring the second cleavage site (CS2) of the Mixed Lineage Leukemia 1 (MLL1) protein, a bona fide Taspase 1 substrate.[39] In this assay, the cleaved and uncleaved substrate fractions of the GST-MLL2700–2850-GFP-His substrate were separated on a Coomassie-stained gel, and signal intensities of the different cleavage bands were quantified (Fig. 7, Fig. S8, and Fig. S9). The addition of recombinant, proteolytically active Taspase 1 (200 nM) led to efficient substrate cleavage, which was inhibited by all photoswitchable tweezer constructs in a concentration-dependent manner. IC50 values for the full series of switchable tweezer constructs ranged from 20 to 50 μM, with measurements taken separately for both E and Z isomers Fig. (S9).
Fig. 7 Switchable tweezer constructs interfere with Taspase 1 proteolytic activity. Cleavage assay utilizing the cleavage site CS2 from the natural substrate MLL (GST-MLL2700–2850-GFP-His) and active wildtype Taspase 1. Inhibition of proteolysis was evaluated by the relative amount of uncleaved substrate. Briefly, 5 μM recombinant substrate were incubated with 200 nM wildtype Taspase 1-His and increasing concentrations of TWAAP0-4 (10 - 100 μM), pre-irradiated with either UV light (365 nm, violet), or green light (520 nm, green), or solvent only. Proteolytic activity in solvent-treated samples was set to 100%, and data from TWAAP-treated samples were normalized accordingly. IC50 values were determined by densitometric quantification of the cleavage bands from the gels shown in Fig. S9, followed by nonlinear curve fitting. These values were also used to generate the summary bar plots shown on the right. Data are shown as the mean ± SD from three independent experiments. Composed with https://BioRender.com.
Figure S8. Photoswitchable TWAAP constructs interfere with Taspase 1’s proteolytic activity.
Cleavage assay utilizing the cleavage site CS2 from the natural substrate MLL (GST -MLL2700-2850-GFP-His, 70 kDa) and active wildtype Taspase 1. Inhibition of proteolysis was evaluated by the relative amount of uncleaved in relation to cleaved substrate (50 kDa and 20 kDa, respectively). Briefly, 5 µM recombinant substrate were incubated with 200 nM wildtype Taspase 1-His and increasing concentrations (10 - 100 µM) of indicated TWAAP irradiated with UV (365 nm, left gel panels) or green light (520 nm, right gel panels). Solvent-treated samples (referred to as untreated, un.) served as reference, and as additional controls, Taspase 1 (-T) was omitted or only Taspase 1 (TASP1) was applied. Representative images of three independent experiments are shown. Composed with […]
Figure S9. Photoswitchable TWAAB constructs interfere with Taspase 1’s proteolytic activity. Cleavage assay utilizing the cleavage site CS2 from the natural substrate MLL (GST -MLL2700-2850-GFP-His, 70 kDa) and active wildtype Taspase 1. Inhibition of proteolysis was evaluated by the relative amount of uncleaved in relation to cleaved substrate (50 kDa and 20 kDa, respectively).
Briefly, 5 µM recombinant substrate were incubated with 200 nM wildtype Taspase 1-His and […]

[1] = target: T2, Taspase 1/Importin α interaction (Homo sapiens, UniProt Q9H6P5, D233A/T234A); assay: Recombinant pull-down assay, GST-Importin α bait and Taspase 1-His prey; assay type: biochemical; conditions: percentage of the PPI of Importin α with full-length Taspase 1, ligand conc. 25 µM, n = 3
T2 construct: with full-length Taspase 1 in the recombinant pull-down assay
T2 sequence (Q9H6P5 1-420 D233A/T234A): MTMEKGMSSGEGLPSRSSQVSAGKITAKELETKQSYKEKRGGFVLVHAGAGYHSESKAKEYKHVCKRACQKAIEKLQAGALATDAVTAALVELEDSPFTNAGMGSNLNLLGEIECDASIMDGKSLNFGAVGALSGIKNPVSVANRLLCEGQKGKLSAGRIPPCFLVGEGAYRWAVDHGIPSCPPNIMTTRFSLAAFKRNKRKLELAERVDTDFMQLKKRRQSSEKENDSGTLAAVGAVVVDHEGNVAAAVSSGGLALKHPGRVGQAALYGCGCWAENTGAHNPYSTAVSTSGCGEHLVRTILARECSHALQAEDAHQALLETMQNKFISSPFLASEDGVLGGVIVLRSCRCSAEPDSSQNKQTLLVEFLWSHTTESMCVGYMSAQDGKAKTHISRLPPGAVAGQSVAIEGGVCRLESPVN
Description: Pull-down assay: recombinant pull-down assays were performed as described.[9,10] For details on the assay workflow, see SI (Fig. S6).
Pull-down assays were conducted with 100 μM of TWAAP3 in either its Z or E isomer form or left untreated (un.), omitting the ligand. […] To achieve the respective Z or E isomer, TWAAP3 was irradiated with UV light (365 nm) or green light (520 nm) prior to incubation. All samples contained 3% DMSO during ligand incubation. Negative controls included samples lacking either GST-Importin α (-Iα) or Taspase 1 (-T). *, p < 0.05, t-test. Composed with https://BioRender.com.
Figure S6. Controls for pull-down assays with TWAAP constructs. A. Schematic assay
representation: GST -Importin α was immobilized on a glutathione -coated Sepharose matrix in a spin
column. After GST binding, Taspase 1-His pre-incubated with tweezer constructs was added. […]

With `Cc1nn(-c2ccc(C#Cc3ccc(-c4cn(CCOP(=O)(O)Oc5c6c(c(OP(=O)(O)O)c7c5C5CC7c7cc8c(cc75)C5CC8c7ccccc75)C5CC6c6cc7c(cc65)C5CC7c6ccccc65)nn4)cc3)cc2)c(C)c1N=Nc1ccc(C#Cc2ccc(-c3cn(CCOP(=O)(O)Oc4c5c(c(OP(=O)(O)O)c6c4C4CC6c6cc7c(cc64)C4CC7c6ccccc64)C4CC5c5cc6c(cc54)C4CC6c5ccccc54)nn3)cc2)cc1` [TWAAP4] the IC50 (wildtype Taspase 1; E isomer) was 24.7 µM, the IC50 (wildtype Taspase 1; Z isomer) was 37.9 µM and the “Difference in inhibitory activity between E and Z isomers (times greater potency of E isomer)” value (wildtype Taspase 1) was 1.5–1.7 times.

`Cc1nn(-c2ccc(-n3cc(CCOP(=O)(O)Oc4c5c(c(OP(=O)(O)O)c6c4C4CC6c6cc7c(cc64)C4CC7c6ccccc64)C4CC5c5cc6c(cc54)C4CC6c5ccccc54)nn3)cc2)c(C)c1N=Nc1ccc(-n2cc(CCOP(=O)(O)Oc3c4c(c(OP(=O)(O)O)c5c3C3CC5c5cc6c(cc53)C3CC6c5ccccc53)C3CC4c4cc5c(cc43)C3CC5c4ccccc43)nn2)cc1` [TWAAP0] was tested, and the IC50 (wildtype Taspase 1; E isomer) was 25.9 µM, the IC50 (wildtype Taspase 1; Z isomer) was 44.6 µM and the “Difference in inhibitory activity between E and Z isomers (times greater potency of E isomer)” value (wildtype Taspase 1) was 1.5–1.7 times.

`O=P(O)(O)Oc1c2c(c(OP(=O)(O)OCCn3cc(-c4ccc(N=Nc5ccc(-c6cn(CCOP(=O)(O)Oc7c8c(c(OP(=O)(O)O)c9c7C7CC9c9cc%10c(cc97)C7CC%10c9ccccc97)C7CC8c8cc9c(cc87)C7CC9c8ccccc87)nn6)cc5)cc4)nn3)c3c1C1CC3c3cc4c(cc31)C1CC4c3ccccc31)C1CC2c2cc3c(cc21)C1CC3c2ccccc21` [TWAB1] was tested, and the IC50 (wildtype Taspase 1; E isomer) was 22.3 µM, the IC50 (wildtype Taspase 1; Z isomer) was 17.9 µM and the “Difference in inhibitory activity between E and Z isomers (times greater potency of E isomer)” value (wildtype Taspase 1) was “no difference”.

For `Cc1nn(-c2ccc(-c3cn(CCOP(=O)(O)Oc4c5c(c(OP(=O)(O)O)c6c4C4CC6c6cc7c(cc64)C4CC7c6ccccc64)C4CC5c5cc6c(cc54)C4CC6c5ccccc54)nn3)cc2)c(C)c1N=Nc1ccc(-c2ccc(-c3cn(CCOP(=O)(O)Oc4c5c(c(OP(=O)(O)O)c6c4C4CC6c6cc7c(cc64)C4CC7c6ccccc64)C4CC5c5cc6c(cc54)C4CC6c5ccccc54)nn3)cc2)cc1` [TWAAP3], the “PPI TW (pull-down, full-length protein)” value ([1]; E isomer) was 90%, the “PPI TW (pull-down, full-length protein)” value ([1]; Z isomer) was 60% and the IC50 (wildtype Taspase 1; E isomer) was 49.4 µM. For the same molecule, the IC50 (wildtype Taspase 1; Z isomer) was 41.9 µM and the “Difference in inhibitory activity between E and Z isomers (times greater potency of E isomer)” value (wildtype Taspase 1) was “no difference”.

For `Cc1nn(Cc2cn(CCOP(=O)(O)Oc3c4c(c(OP(=O)(O)O)c5c3C3CC5c5cc6c(cc53)C3CC6c5ccccc53)C3CC4c4cc5c(cc43)C3CC5c4ccccc43)nn2)c(C)c1N=Nc1ccc(-c2cn(CCOP(=O)(O)Oc3c4c(c(OP(=O)(O)O)c5c3C3CC5c5cc6c(cc53)C3CC6c5ccccc53)C3CC4c4cc5c(cc43)C3CC5c4ccccc43)nn2)cc1` [TWAAP2], the IC50 (wildtype Taspase 1; E isomer) was 17.5 µM, the IC50 (wildtype Taspase 1; Z isomer) was 25.4 µM and the “Difference in inhibitory activity between E and Z isomers (times greater potency of E isomer)” value (wildtype Taspase 1) was “no difference”.
